Source: ChEMBL document CHEMBL1201862, “PubChem BioAssay data set” (2004)
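Protocol summary: plate cells (96-well), add compound at 5 concentrations, incubate 48 h, interpolate endpoints linearly. GI50: concentration for 50% inhibition of growth.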 Calls of active or inactive are those of the source. No stated cut-off is given here; in the data, active = GI50 up to about 1.1 µM and inactive = higher.

Legend:
Test in all cases: NCI tumour cell line growth inhibition, 48 h
786-0 = tested on: 786-0
A498 = tested on: A498
A549 = tested on: A549
ACHN = tested on: ACHN
BT-549 = tested on: BT-549
CAKI-1 = tested on: CAKI-1
CCRF-CEM = tested on: CCRF-CEM
COLO 205 = tested on: COLO 205
DU-145 = tested on: DU-145
EKVX = tested on: EKVX
HCC 2998 = tested on: HCC 2998
HCT-116 = tested on: HCT-116
HCT-15 = tested on: HCT-15
HOP-62 = tested on: HOP-62
HOP-92 = tested on: HOP-92
HT-29 = tested on: HT-29
Hs-578T = tested on: Hs-578T
IGROV-1 = tested on: IGROV-1
K562 = tested on: K562
KM12 = tested on: KM12
LOX IMVI = tested on: LOX IMVI
M14 = tested on: M14
MCF7 = tested on: MCF7
MDA-MB-231 = tested on: MDA-MB-231
MDA-MB-435 = tested on: MDA-MB-435
MDA-N = tested on: MDA-N
MOLT-4 = tested on: MOLT-4
Malme-3M = tested on: Malme-3M
NCI-H23 = tested on: NCI-H23
NCI-H460 = tested on: NCI-H460
NCI-H522 = tested on: NCI-H522
NCI/ADR-RES = tested on: NCI/ADR-RES
OVCAR-3 = tested on: OVCAR-3
OVCAR-4 = tested on: OVCAR-4
OVCAR-5 = tested on: OVCAR-5
OVCAR-8 = tested on: OVCAR-8
PC-3 = tested on: PC-3
RPMI-8226 = tested on: RPMI-8226
RXF 393 = tested on: RXF 393
SF-268 = tested on: SF-268
SF-295 = tested on: SF-295
SK-MEL-28 = tested on: SK-MEL-28
SK-MEL-2 = tested on: SK-MEL-2
SK-MEL-5 = tested on: SK-MEL-5
SK-OV-3 = tested on: SK-OV-3
SNB-19 = tested on: SNB-19
SNB-75 = tested on: SNB-75
SR = tested on: SR
SW-620 = tested on: SW-620
U-251 = tested on: U-251
UACC-257 = tested on: UACC-257
UACC-62 = tested on: UACC-62
UO-31 = tested on: UO-31
HL-60 = tested on: HL-60
NCI-H226 = tested on: NCI-H226
SF-539 = tested on: SF-539
SN12C = tested on: SN12C
TK-10 = tested on: TK-10

## C/C=C\C(CC(=O)O)CC(=O)NCCC1CN(S(=O)(=O)C(F)(F)F)c2ccccc21 (stereo not drawn)
786-0
  GI50: > 100 µM (inactive)
A498
  GI50: > 100 µM (inactive)
A549
  GI50: > 100 µM (inactive)
ACHN
  GI50: > 100 µM (inactive)
BT-549
  GI50: > 100 µM (inactive)
CAKI-1
  GI50: > 100 µM (inactive)
CCRF-CEM
  GI50: > 100 µM (inactive)
COLO 205
  GI50: > 100 µM (inactive)
DU-145
  GI50: > 100 µM (inactive)
EKVX
  GI50: > 100 µM (inactive)
HCC 2998
  GI50: > 100 µM (inactive)
HCT-116
  GI50: > 100 µM (inactive)
HCT-15
  GI50: > 100 µM
HOP-62
  GI50: > 100 µM (inactive)
HOP-92
  GI50: > 100 µM (inactive)
HT-29
  GI50: > 100 µM (inactive)
Hs-578T
  GI50: > 100 µM (inactive)
IGROV-1
  GI50: > 100 µM (inactive)
K562
  GI50: > 100 µM (inactive)
KM12
  GI50: > 100 µM (inactive)
LOX IMVI
  GI50: > 100 µM (inactive)
M14
  GI50: > 100 µM (inactive)
MCF7
  GI50: > 100 µM (inactive)
MDA-MB-231
  GI50: > 100 µM (inactive)
MDA-MB-435
  GI50: > 100 µM (inactive)
MDA-N
  GI50: > 100 µM (inactive)
MOLT-4
  GI50: > 100 µM (inactive)
Malme-3M
  GI50: > 100 µM (inactive)
NCI-H23
  GI50: > 100 µM (inactive)
NCI-H460
  GI50: > 100 µM (inactive)
NCI-H522
  GI50: > 100 µM (inactive)
NCI/ADR-RES
  GI50: > 100 µM (inactive)
OVCAR-3
  GI50: > 100 µM (inactive)
OVCAR-4
  GI50: > 100 µM (inactive)
OVCAR-5
  GI50: > 100 µM (inactive)
OVCAR-8
  GI50: > 100 µM (inactive)
PC-3
  GI50: > 100 µM (inactive)
RPMI-8226
  GI50: > 100 µM (inactive)
RXF 393
  GI50: > 100 µM (inactive)
SF-268
  GI50: > 100 µM (inactive)
SF-295
  GI50: > 100 µM (inactive)
SK-MEL-28
  GI50: > 100 µM (inactive)
SK-MEL-2
  GI50: > 100 µM (inactive)
SK-MEL-5
  GI50: > 100 µM (inactive)
SK-OV-3
  GI50: > 100 µM (inactive)
SNB-19
  GI50: > 100 µM (inactive)
SNB-75
  GI50: > 100 µM (inactive)
SR
  GI50: > 100 µM (inactive)
SW-620
  GI50: > 100 µM (inactive)
U-251
  GI50: > 100 µM (inactive)
UACC-257
  GI50: > 100 µM (inactive)
UACC-62
  GI50: > 100 µM (inactive)
UO-31
  GI50: > 100 µM (inactive)

## COc1ccc(OC)c(/C=C2/C(=O)N/C(=N\C(C)=O)N2C)c1
786-0
  GI50: > 100 µM (inactive)
A549
  GI50: > 100 µM (inactive)
ACHN
  GI50: > 100 µM (inactive)
BT-549
  GI50: > 100 µM (inactive)
CAKI-1
  GI50: > 100 µM (inactive)
CCRF-CEM
  GI50: > 100 µM (inactive)
COLO 205
  GI50: > 100 µM (inactive)
DU-145
  GI50: > 100 µM (inactive)
EKVX
  GI50: > 100 µM (inactive)
HCC 2998
  GI50: > 100 µM (inactive)
HCT-116
  GI50: > 100 µM (inactive)
HCT-15
  GI50: > 100 µM
HL-60
  GI50: 95.1 µM (inactive)
HOP-62
  GI50: > 100 µM (inactive)
HOP-92
  GI50: > 100 µM (inactive)
HT-29
  GI50: > 100 µM (inactive)
Hs-578T
  GI50: > 100 µM (inactive)
IGROV-1
  GI50: > 100 µM (inactive)
KM12
  GI50: > 100 µM (inactive)
LOX IMVI
  GI50: > 100 µM (inactive)
M14
  GI50: > 100 µM (inactive)
MCF7
  GI50: > 100 µM (inactive)
MDA-MB-231
  GI50: > 100 µM (inactive)
MDA-MB-435
  GI50: > 100 µM (inactive)
MDA-N
  GI50: > 100 µM (inactive)
MOLT-4
  GI50: > 100 µM (inactive)
NCI-H226
  GI50: > 100 µM (inactive)
NCI-H23
  GI50: > 100 µM (inactive)
NCI-H460
  GI50: > 100 µM (inactive)
NCI-H522
  GI50: > 100 µM (inactive)
NCI/ADR-RES
  GI50: > 100 µM (inactive)
OVCAR-3
  GI50: > 100 µM (inactive)
OVCAR-4
  GI50: > 100 µM (inactive)
OVCAR-5
  GI50: > 100 µM (inactive)
OVCAR-8
  GI50: > 100 µM (inactive)
PC-3
  GI50: > 100 µM (inactive)
RXF 393
  GI50: > 100 µM (inactive)
SF-268
  GI50: > 100 µM (inactive)
SF-295
  GI50: > 100 µM (inactive)
SF-539
  GI50: > 100 µM (inactive)
SK-MEL-28
  GI50: > 100 µM (inactive)
SK-MEL-2
  GI50: > 100 µM (inactive)
SK-MEL-5
  GI50: > 100 µM (inactive)
SK-OV-3
  GI50: > 100 µM (inactive)
SN12C
  GI50: > 100 µM (inactive)
SNB-19
  GI50: > 100 µM (inactive)
SNB-75
  GI50: > 100 µM (inactive)
SW-620
  GI50: > 100 µM (inactive)
TK-10
  GI50: > 100 µM (inactive)
U-251
  GI50: > 100 µM (inactive)
UACC-257
  GI50: > 100 µM (inactive)
UACC-62
  GI50: > 100 µM (inactive)
UO-31
  GI50: > 100 µM (inactive)

## COc1ccc2c(c1)C/C(=C\c1ccc(O)c(OC)c1)C2=O
786-0
  GI50: > 100 µM (inactive)
A498
  GI50: > 100 µM (inactive)
A549
  GI50: > 100 µM (inactive)
ACHN
  GI50: > 100 µM (inactive)
BT-549
  GI50: > 100 µM (inactive)
CAKI-1
  GI50: > 100 µM (inactive)
EKVX
  GI50: > 100 µM (inactive)
HCC 2998
  GI50: > 100 µM (inactive)
HCT-15
  GI50: > 100 µM
HL-60
  GI50: > 100 µM (inactive)
HT-29
  GI50: > 100 µM (inactive)
Hs-578T
  GI50: > 100 µM (inactive)
IGROV-1
  GI50: > 10 µM (inactive)
K562
  GI50: > 100 µM (inactive)
LOX IMVI
  GI50: > 100 µM (inactive)
M14
  GI50: > 100 µM (inactive)
MCF7
  GI50: > 100 µM (inactive)
MOLT-4
  GI50: > 100 µM (inactive)
NCI-H226
  GI50: > 100 µM (inactive)
NCI-H23
  GI50: > 100 µM (inactive)
NCI-H460
  GI50: > 100 µM (inactive)
NCI/ADR-RES
  GI50: > 100 µM (inactive)
OVCAR-3
  GI50: > 100 µM (inactive)
OVCAR-4
  GI50: > 100 µM (inactive)
OVCAR-5
  GI50: > 100 µM (inactive)
OVCAR-8
  GI50: > 100 µM (inactive)
PC-3
  GI50: > 100 µM (inactive)
RPMI-8226
  GI50: > 100 µM (inactive)
SF-268
  GI50: > 100 µM (inactive)
SF-539
  GI50: > 100 µM (inactive)
SK-MEL-28
  GI50: > 100 µM (inactive)
SK-MEL-5
  GI50: > 10 µM (inactive)
SK-OV-3
  GI50: > 100 µM (inactive)
SN12C
  GI50: > 100 µM (inactive)
SNB-19
  GI50: > 100 µM (inactive)
SNB-75
  GI50: 46 µM (inactive)
SR
  GI50: > 100 µM (inactive)
SW-620
  GI50: > 100 µM (inactive)
TK-10
  GI50: > 100 µM (inactive)
U-251
  GI50: > 100 µM (inactive)
UACC-62
  GI50: > 100 µM (inactive)
UO-31
  GI50: > 100 µM (inactive)
